{"source": "patent US4652549A", "about": "“Cardiac anti-hypertrophic agents” (Merck & Co., Inc., priority 1985, dated 1987)", "test_system": "cardiac hypertrophy", "experiment": "7-day continuous infusion, reversing cardiac hypertrophy (heart weight)", "format": "in vivo", "settings": "30 pmole per kg per minute", "from_the_text": "Heart Weight (grams H2 O per 100 grams tissue)", "data": [{"substance": "Arg-Arg-Ser-Ser-Cys-Phe-Gly-Gly-Arg-Ile-Asp-Arg-Ile-Gly-Ala-Gln-Ser-Gly-Leu-Gly-Cys-Asn-Ser-Phe-Arg-Tyr (RRSSCFGGRIDRIGAQSGLGCNSFRY; printed: Arg-Arg-Ser-Ser-Cys-Phe-Gly-Gly-Arg-Ile-Asp-Arg-Ile-Gly-Ala-Gln-Ser-Gly-Leu-Gly-Cys-Asn-Ser-Phe-Arg-Tyr) [PEPTIDE OF EXAMPLE 5]", "values": [{"measurement": "Heart Weight", "setting": "NORMAL group, n = 22", "value": "0.45 + 0.02 grams H2 O per 100 grams tissu"}, {"measurement": "Heart Weight", "setting": "first group (heading not given, presumably hypertrophic animals), n = 23, statistically significant at p less than 0.05", "value": "0.70 + 0.03 grams H2 O per 100 grams tissu"}]}]}
